Laboratory results reported in patent US20230240297A1, “SELECTIVE HERBICIDES BASED ON SUBSTITUTED ISOXAZOLIN CARBOXAMIDES AND CYPROSULFAMIDE” (Bayer Aktiengesellschaft, priority 2020, published 2023).

Legend:
[1] = system: ZEAMA Sileno; assay: Tank-mix; post-emergence, crop damage with and without safener; assay type: in vivo, maize; settings: for HER effect + SAF / HER effect: Final assessment; for HER effect: no safener
Protocol: Seeds of crops (spring wheat, TRZAS; spring barley, HORVS; maize, ZEAMA) were placed in sandy loam soil in peat pots, covered with soil and cultivated in a greenhouse under good growth conditions. Two to three weeks after sowing, the test plants were treated at the 1 to 3-leaf stage. The herbicide/safener active compound combinations according to the invention, formulated as wettable powders or emulsion concentrates, and, in parallel tests, the correspondingly formulated individual active compounds were sprayed onto the green parts of the plants in various dosages using an amount of water of 300 1/ha (converted).
The pots were returned under good growing conditions in a glasshouse and a visual assessment of herbicidal effects was made at intervals from 1 to 3 weeks after herbicide application (DAT = days after treatment). Assessment was on a percentage basis in comparison with untreated control plants (0% = no injury, 100% = complete kill).

[2] = system: ZEAMA Sileno; assay: Seed treatment with safener; post-emergence herbicide application; assay type: in vivo, maize; set-up: Reduction [Difference]: scale not given here; settings: Final assessment; for Reduction [%] / Reduction [Difference]: Cyprosulfamide 0.5 g a.i./kg seed; for Reduction [Difference]: damage without safener - damage with safener; for HER effect + SAF (crop damage with safener): Cyprosulfamide seed treatment 0.5 g a.i./kg seed; for HER effect (crop damage, herbicide without safener): no safener
Protocol: For the safener seed treatment, sufficient seeds of the respective crops (spring wheat, TRZAS; spring barley, HORVS; maize, ZEAMA) were weighed into screw top glass bottles approximately twice the volume of the seeds.
The specified safeners, formulated as wettable powder (WP) were weighed out so that the specified rates (g a.i./kg seed) would be obtained, dissolved in water (1 ml water per 10 g of seeds), and added to the seeds to produce a slurry.
The bottles were capped and then placed in an overhead shaker (set at medium speed for ca. 60 minutes) so that the seeds were evenly coated with the slurry. The bottles were uncapped and the seeds were either placed on paper and dried for an interval of 3-4 hours prior to sowing, or directly sown. Seeds were placed in sandy loam soil in pots of a diameter of 7-8 cm, covered with soil, and cultivated in a greenhouse under good growth conditions.
Post-emergence application of the specified herbicides was done when the plants had reached growth stage BBCH11-13, on two sets of plants:
a) seed treatment with safener, as described above b) no safener treatment
The herbicides were formulated as WP and sprayed onto the green parts of the plants as an aqueous suspension at an equivalent water application rate of 300 1/ha, with addition of wetting agent and adjuvants (e.g. Mero, 1.5 1/ha; ammonium sulphate, 2 kg/ha)
After application, the test plants were kept in the greenhouse under good growth conditions.
Values in the table below are mean values of at least 2 replicates.

[3] = HER 8 g a.i./ha, cyprosulfamide 50 g a.i./ha
[4] = HER 32 g a.i./ha, cyprosulfamide 100 g a.i./ha
[5] = HER dose 8 g a.i./ha + cyprosulfamide 50 g a.i./ha tank-mix
[6] = HER dose 32 g a.i./ha + cyprosulfamide 100 g a.i./ha tank-mix

Row | Structure (SMILES) | Reduction [%] [1, 3] [%] | Reduction [Difference] [1, 3] | Reduction [%] [1, 4] [%] | Reduction [Difference] [1, 4] | HER effect + SAF [1, 5] [%] | HER effect ([1]; HER dose 8 g a.i./ha) [%] | HER effect + SAF [1, 6] [%] | HER effect ([1]; HER dose 32 g a.i./ha) [%] | Reduction [%] ([2]; HER dose 8 g a.i./ha) | Reduction [Difference] ([2]; HER dose 8 g a.i./ha) | HER effect + SAF (crop damage with safener) ([2]; HER dose 8 g a.i./ha) [%] | HER effect (crop damage, herbicide without safener) ([2]; HER dose 8 g a.i./ha) [%] | Reduction [%] ([2]; HER dose 32 g a.i./ha) | Reduction [Difference] ([2]; HER dose 32 g a.i./ha) | HER effect + SAF (crop damage with safener) ([2]; HER dose 32 g a.i./ha) [%] | HER effect (crop damage, herbicide without safener) ([2]; HER dose 32 g a.i./ha) [%] | also measured
1 | COC(=O)C1C=CC(NC(=O)C2(C)CC(c3cc(Cl)cc(C#N)c3)=NO2)C1 (mixture of isomers) [Example 1.23] | 60 | 30 | 67 | 47 | 20 | 50 | 23 | 70 | 100 | 50 | 0 | 50 | 96 | 67 | 3 | 70 | –
2 | CCOC(=O)C1=CCC(NC(=O)C2(C)CC(c3cccc(F)c3)=NO2)C1 (mixture of isomers) [Example 1.59] | 100 | 20 | 90 | 60 | 0 | 20 | 7 | 67 | 100 | 20 | 0 | 20 | 85 | 57 | 10 | 67 | –
3 | CC1(C(=O)NC2CC=C(C(=O)NS(C)(=O)=O)C2)CC(c2cc(F)cc(F)c2)=NO1 (mixture of isomers) [Example 1.61] | – | – | – | – | – | – | – | – | 57 | 47 | 35 | 82 | 44 | 40 | 50 | 90 | –
4 | C=CC1(C(=O)NC2COC(C(=O)OCCOC)C2)CC(c2cc(F)cc(F)c2)=NO1 (mixture of isomers) [Example 1.66] | 76 | 73 | 54 | 52 | 23 | 96 | 45 | 97 | 100 | 96 | 0 | 96 | 97 | 94 | 3 | 97 | Reduction [%] ([1]; HER 2 g a.i./ha, cyprosulfamide 50 g a.i./ha): 79%; Reduction [Difference] ([1]; HER 2 g a.i./ha, cyprosulfamide 50 g a.i./ha, damage without safener - damage with safener): 26; HER effect + SAF ([1]; HER dose 2 g a.i./ha + cyprosulfamide 50 g a.i./ha tank-mix): 7%; HER effect ([1]; HER dose 2 g a.i./ha, 0% = no injury, 100% = complete kill): 33%; Reduction [%] ([2]; HER dose 2 g a.i./ha): 100%; Reduction [Difference] ([2]; HER dose 2 g a.i./ha): 33; HER effect + SAF (crop damage with safener) ([2]; HER dose 2 g a.i./ha): 0%; HER effect (crop damage, herbicide without safener) ([2]; HER dose 2 g a.i./ha): 33%
5 | C=CCOC(=O)C1CC(NC(=O)C2(C)CC(c3cc(F)cc(F)c3)=NO2)CO1 (mixture of isomers) [Example 1.75] | 62 | 45 | 66 | 58 | 28 | 73 | 30 | 88 | 100 | 73 | 0 | 73 | 89 | 78 | 10 | 88 | –
